# Experimental data reported in ChEMBL document CHEMBL6103615, “Thymidylate Kinase-Targeted Antimicrobial Peptides via Phage Display: A Novel Strategy against Gram-Negative Bacteria” (J Med Chem, 2025).
# Calls of active or inactive are those of the source. The calls are words filed in the database; no cut-off is given here.
# Key:
# Escherichia coli [1] = assay: Binding affinity to Escherichia coli K88 TraV at 128 uM by BLI assay
# Escherichia coli [2] = assay: Binding affinity to Escherichia coli K88 TMK at 128 uM by BLI assay
# [3] = tested on: Lacticaseibacillus rhamnosus; assay: Antibacterial activity against Lactobacillus rhamnosus 7469 incubated for 12 to 18 hrs by microbroth dilution method; assay type: functional; conditions: time 12-18 hrs
# Enterococcus faecalis = assay: Antibacterial activity against Enterococcus faecalis 29212 incubated for 12 to 18 hrs by microbroth dilution method; assay type: functional; conditions: time 12-18 hrs
# [4] = tested on: Lactiplantibacillus plantarum; assay: Antibacterial activity against Lactobacillus plantarum 8014 incubated for 12 to 18 hrs by microbroth dilution method; assay type: functional; conditions: time 12-18 hrs
# [5] = Cytotoxicity against porcine IPEC-J2 cells assessed as cell viability at 128 uM incubated for 4 hrs by MTT assay relative to control; assay type: toxicity, cell-based, Sus scrofa; conditions: pig, read-out: Activity
# [6] = Hemolytic activity against human red blood cells at 2 to 128 uM relative to control; assay type: toxicity, cell-based, Erythrocyte; conditions: dose 2-128 µM, read-out: Activity
# [7] = Cytotoxicity against mouse RAW264.7 cells assessed as cell viability at 128 uM incubated for 4 hrs by MTT assay relative to control; assay type: toxicity, cell-based; conditions: read-out: Activity
# Lactococcus lactis = assay: Antibacterial activity against Lactococcus lactis NZ9000 incubated for 12 to 18 hrs by microbroth dilution method; assay type: functional; conditions: time 12-18 hrs
# [8] = Antibacterial activity against Salmonella choleraesuis 21493 incubated for 12 to 18 hrs by microbroth dilution method; assay type: functional, Salmonella enterica subsp. enterica serovar Choleraesuis; conditions: Salmonella enterica, time 12-18 hrs
# [9] = Relative hydrophobic moment of compound; assay type: physicochemical
# [10] = Hydrophobicity of compound; assay type: physicochemical
# Staphylococcus aureus [11] = assay: Antibacterial activity against Staphylococcus aureus 29213 incubated for 12 to 18 hrs by microbroth dilution method; assay type: functional; conditions: time 12-18 hrs
# Escherichia coli [12] = assay: Antibacterial activity against Escherichia coli K88 incubated for 12 to 18 hrs by microbroth dilution method; assay type: functional; conditions: time 12-18 hrs
# Escherichia coli [13] = assay: Antibacterial activity against Escherichia coli 1515 incubated for 12 to 18 hrs by microbroth dilution method; assay type: functional; conditions: time 12-18 hrs
# Pseudomonas aeruginosa [14] = assay: Antibacterial activity against Pseudomonas aeruginosa PAO1 incubated for 12 to 18 hrs by microbroth dilution method; assay type: functional; conditions: time 12-18 hrs
# Staphylococcus aureus [15] = assay: Antibacterial activity against Staphylococcus aureus 25923 incubated for 12 to 18 hrs by microbroth dilution method; assay type: functional; conditions: time 12-18 hrs
# Escherichia coli [16] = assay: Antibacterial activity against Escherichia coli K99 incubated for 12 to 18 hrs by microbroth dilution method; assay type: functional; conditions: time 12-18 hrs
# [17] = tested on: Staphylococcus epidermidis; assay: Antibacterial activity against Staphylococcus epidermidis 12228 incubated for 12 to 18 hrs by microbroth dilution method; assay type: functional; conditions: time 12-18 hrs
# Escherichia coli [18] = assay: Antibacterial activity against Escherichia coli 078 incubated for 12 to 18 hrs by microbroth dilution method; assay type: functional; conditions: time 12-18 hrs
# Staphylococcus aureus [19] = assay: Antibacterial activity against methicillin-resistant Staphylococcus aureus 43300 incubated for 12 to 18 hrs by microbroth dilution method; assay type: functional; conditions: time 12-18 hrs
# Pseudomonas aeruginosa [20] = assay: Antibacterial activity against Pseudomonas aeruginosa 27853 incubated for 12 to 18 hrs by microbroth dilution method; assay type: functional; conditions: time 12-18 hrs
# Salmonella typhimurium = assay: Antibacterial activity against Salmonella typhimurium 7731 incubated for 12 to 18 hrs by microbroth dilution method; assay type: functional, Salmonella enterica subsp. enterica serovar Typhimurium; conditions: Salmonella enterica, time 12-18 hrs
Molecule,MIC [3] [µM],MIC (Enterococcus faecalis) [µM],MIC [4] [µM],"viability at 4 h, 128 µM [5] [%]","viability at 4 h, 128 µM [7] [%]",MIC (Lactococcus lactis) [µM],MIC [8] [µM],Activity [9],Activity [10],MIC (Staphylococcus aureus [11]) [µM],MIC (Escherichia coli [12]) [µM],MIC (Escherichia coli [13]) [µM],MIC (Pseudomonas aeruginosa [14]) [µM],MIC (Staphylococcus aureus [15]) [µM],MIC (Escherichia coli [16]) [µM],MIC [17] [µM],MIC (Escherichia coli [18]) [µM],MIC (Staphylococcus aureus [19]) [µM],MIC (Pseudomonas aeruginosa [20]) [µM],MIC (Salmonella typhimurium) [µM],also measured
CC[C@@H](C)[C@H](NC(=O)CNC(=O)[C@@H]1CCCN1C(=O)[C@H](CCCCN)NC(=O)[C@H](Cc1c[nH]c2ccccc12)NC(=O)[C@@H](NC(=O)[C@H](CCCCN)NC(=O)[C@H](CCCCN)NC(=O)[C@H](Cc1c[nH]c2ccccc12)NC(=O)[C@H](Cc1ccc(O)cc1)NC(=O)[C@H](CCCCN)NC(=O)[C@@H](NC(=O)[C@H](CC(C)C)NC(=O)[C@H](CC(N)=O)NC(=O)CNC(=O)[C@H](CO)NC(=O)CCCC[C@@H]1SC[C@@H]2NC(=O)N[C@@H]21)[C@@H](C)O)[C@@H](C)CC)C(=O)N[C@@H](CCCCN)C(=O)N[C@@H](CCCCN)C(=O)N[C@@H](Cc1c[nH]c2ccccc12)C(=O)N[C@H](C(=O)N[C@@H](CCCCN)C(=O)O)[C@H](C)CC,–,–,–,–,–,–,–,–,–,–,–,–,–,–,–,–,–,–,–,–,Activity (Escherichia coli [1]): Active; Activity (Escherichia coli [2]): Active
CC[C@H](C)[C@H](NC(=O)CN)C(=O)NCC(=O)N[C@@H](C)C(=O)N[C@H](C(=O)N[C@@H](CC(C)C)C(=O)N[C@@H](CCCCN)C(=O)N[C@H](C(=O)N[C@@H](CC(C)C)C(=O)N[C@H](C(=O)N[C@H](C(=O)NCC(=O)N[C@@H](CC(C)C)C(=O)N1CCC[C@H]1C(=O)N[C@@H](C)C(=O)N[C@@H](CC(C)C)C(=O)N[C@H](C(=O)N[C@@H](CO)C(=O)N[C@@H](Cc1c[nH]c2ccccc12)C(=O)N[C@H](C(=O)N[C@@H](CCCCN)C(=O)N[C@@H](CCCNC(=N)N)C(=O)N[C@@H](CCCCN)C(=O)N[C@@H](CCCNC(=N)N)C(=O)N[C@@H](CCC(N)=O)C(=O)N[C@@H](CCC(N)=O)C(N)=O)[C@@H](C)CC)[C@@H](C)CC)[C@@H](C)O)[C@@H](C)O)C(C)C)C(C)C [MELITTIN],2,2,2,> 80,> 80,2,4,–,–,–,–,–,–,–,–,–,–,–,–,–,hemolysis at up to 128 µM [6]: < 5%
H-CFASAPRWKKIWKPGIKKWIK-OH [listing 1 of 2 here],–,–,–,> 80,> 80,–,–,0.562,0.502,–,–,–,–,–,–,–,–,–,–,–,hemolysis at up to 128 µM [6]: < 5%
H-CFASAPRWKKIWKPGIKKWIK-OH [listing 2 of 2 here],128,128,128,–,–,128,16,–,–,128,8,8,8,128,16,128,16,128,32,16,–
H-EMPGYNSWKKIWKPGIKKWIK-OH,128,128,128,> 80,> 80,128,64,0.475,0.408,128,32,64,32,128,32,128,128,128,64,64,hemolysis at up to 128 µM [6]: < 5%
H-FASSHPSWKKIWKPGIKKWIK-OH,128,128,128,> 80,> 80,128,16,0.55,0.465,128,32,32,16,128,32,128,32,128,32,16,–
H-HSDANAWWKKIWKPGIKKWIK-OH,128,128,128,> 80,> 80,128,16,0.455,0.406,128,32,16,16,128,16,128,8,128,32,32,–
H-RLTTMVHWKKIWKPGIKKWIK-OH,128,128,128,> 80,> 80,128,16,0.439,0.51,128,4,8,4,128,8,128,8,128,8,8,hemolysis at up to 128 µM [6]: < 5%
H-WTSNDTAWKKIWKPGIKKWIK-OH,128,128,128,> 80,> 80,128,64,0.532,0.41,128,64,64,64,128,64,128,128,128,128,64,hemolysis at up to 128 µM [6]: < 5%
H-YTVSATYWKKIWKPGIKKWIK-OH,128,128,128,> 80,> 80,128,16,0.452,0.517,128,8,8,8,128,8,128,8,128,32,8,hemolysis at up to 128 µM [6]: < 5%
